US10597388B2, “Pyridazinone herbicides” (FMC CORPORATION, priority 2014, dated 2020)

Experiments:
Type in all cases: in vivo
[1] = test system: ducksalad (Heteranthera limosa); test: Test B flooded paddy test; conditions: 250 g ai/ha, Flood; visual rating on scale of 0 to 100 where 0 is no effect and 100 is complete control; 13 to 15 d after treatment
Method: (§1) Plant species in the flooded paddy test selected from rice (Oryza sativa), sedge, umbrella (small-flower umbrella sedge, Cyperus difformis), ducksalad (Heteranthera limosa), and barnyardgrass (Echinochloa crus-galli) were grown to the 2-leaf stage for testing. At time of treatment, test pots were flooded to 3 cm above the soil surface, treated by application of test compounds directly to the paddy water, and then maintained at that water depth for the duration of the test. Treated plants and controls were maintained in a greenhouse for 13 to 15 d, after which time all species were compared to controls and visually evaluated. Plant response ratings, summarized in Table B, are based on a scale of 0 to 100 where 0 is no effect and 100 is complete control. A dash (-) response means no test result.

[2] = test system: barnyardgrass (Echinochloa crus-galli); test: Test B flooded paddy test; conditions: 250 g ai/ha, Flood; visual rating on scale of 0 to 100 where 0 is no effect and 100 is complete control; 13 to 15 d after treatment
Method: as §1

[3] = test system: sedge, umbrella (small-flower umbrella sedge, Cyperus difformis); test: Test B flooded paddy test; conditions: 250 g ai/ha, Flood; visual rating on scale of 0 to 100 where 0 is no effect and 100 is complete control; 13 to 15 d after treatment
Method: as §1

rice (Oryza sativa) = test: Test B flooded paddy test; conditions: 250 g ai/ha, Flood; visual rating on scale of 0 to 100 where 0 is no effect and 100 is complete control; 13 to 15 d after treatment
Method: as §1

[4] = test system: ryegrass, Italian (Italian ryegrass, Lolium multiflorum); test: Test A greenhouse herbicide test, pre- and postemergence
From the text: (§2) Seeds of plant species selected from barnyardgrass (Echinochloa crus-galli), kochia (Kochia scoparia), ragweed (common ragweed, Ambrosia elatior), ryegrass, Italian (Italian ryegrass, Lolium multiflorum), crabgrass, large (large crabgrass, Digitaria sanguinalis), foxtail, giant (giant foxtail, Setaria faberii), momingglory (Ipomoea spp.), pigweed (Amaranthus retroflexus), velvetleaf (Abutilon theophrasti), wheat (Triticum aestivum), and corn (Zea mays) were planted into a blend of loam soil and sand and treated preemergence with a directed soil spray using test chemicals formulated in a non-phytotoxic solvent mixture which included a surfactant.
(§3) At the same time, plants selected from these crop and weed species and also blackgrass (Alopecurus myosuroides), and galium (catchweed bedstraw, Galium aparine) were planted in pots containing the same blend of loam soil and sand and treated with postemergence applications of test chemicals formulated in the same manner. Plants ranged in height from 2 to 10 cm and were in the one- to two-leaf stage for the postemergence treatment. Treated plants and untreated controls were maintained in a greenhouse for approximately 10 d, after which time all treated plants were compared to untreated controls and visually evaluated for injury. Plant response ratings, summarized in Table A, are based on a 0 to 100 scale where 0 is no effect and 100 is complete control. A dash (-) response means no test result.

corn (Zea mays) = test: as above; conditions: Postemergence; for Plant response rating, Corn: 125 g ai/ha, visual rating after approx. 10 d, 0 to 100 scale (0 no effect, 100 complete control); for Corn plant response rating: 500 g ai/ha, 0 to 100 scale, 0 is no effect, 100 is complete control
From the text: as §2, §3

[5] = test system: barnyardgrass (Echinochloa crus-galli); test: as above
From the text: as §2, §3

[6] = test system: pigweed (Amaranthus retroflexus); test: as above
From the text: as §2, §3

[7] = test system: ragweed (common ragweed, Ambrosia elatior); test: as above
From the text: as §2, §3

[8] = test system: wheat (Triticum aestivum); test: as above; conditions: Postemergence; for Plant response rating, Wheat: 125 g ai/ha, 0 to 100 scale where 0 is no effect and 100 is complete control; for Wheat plant response rating: 500 g ai/ha, 0 to 100 scale, 0 is no effect, 100 is complete control
From the text: as §2, §3

[9] = test system: foxtail, giant (giant foxtail, Setaria faberii); test: as above
From the text: as §2, §3

kochia (Kochia scoparia) = test: as above
From the text: as §2, §3

[10] = test system: blackgrass (Alopecurus myosuroides); test: Test A greenhouse herbicide test, postemergence; conditions: for Plant response rating, Blackgrass: 125 g ai/ha, visual rating after approx. 10 d, 0 to 100 scale (0 no effect, 100 complete control); for Blackgrass plant response rating: 500 g ai/ha, 0 to 100 scale, 0 is no effect, 100 is complete control
Outline: (§4)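 Visual injury score, 0 (no effect) to 100 (complete control), versus untreated controls roughly 10 d after postemergence spray; plants at one- to two-leaf stage, 2 to 10 cm tall, in loam soil and sand, kept in greenhouse.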

[11] = test system: galium (catchweed bedstraw, Galium aparine); test: Test A greenhouse herbicide test, postemergence; conditions: for Plant response rating, Galium: 125 g ai/ha, visual rating after approx. 10 d, 0 to 100 scale (0 no effect, 100 complete control); for Galium plant response rating: 500 g ai/ha, 0 to 100 scale, 0 is no effect, 100 is complete control
Outline: as §4

[12] = Postemergence, 125 g ai/ha, 0 to 100 scale where 0 is no effect and 100 is complete control
[13] = Postemergence, 500 g ai/ha, 0 to 100 scale, 0 is no effect, 100 is complete control
[14] = Preemergence, 125 g ai/ha, 0 to 100 scale where 0 is no effect and 100 is complete control
[15] = Preemergence, 500 g ai/ha, 0 to 100 scale, 0 no effect, 100 complete control
[16] = Postemergence, 125 g ai/ha, visual rating after approx. 10 d, 0 to 100 scale (0 no effect, 100 complete control)

Row | SMILES | Plant response rating, Ducksalad [1] | Plant response rating, Barnyardgrass [2] | Plant response rating, Sedge, Umbrella [3] | Plant response rating, Rice (rice (Oryza sativa)) | Plant response rating, Ryegrass, Italian [4, 12] | Ryegrass, Italian plant response rating [4, 13] | Ryegrass, Italian plant response rating [4, 14] | Plant response rating, Ryegrass, Italian [4, 15] | Plant response rating, Corn (corn (Zea mays)) | Corn plant response rating (corn (Zea mays)) | Plant response rating, Barnyardgrass [5, 16] | Barnyardgrass plant response rating [5, 13] | Barnyardgrass plant response rating [5, 14] | Plant response rating, Barnyardgrass [5, 15] | Plant response rating, Pigweed [6, 16] | Pigweed plant response rating [6, 13] | Pigweed plant response rating [6, 14] | Plant response rating, Pigweed [6, 15] | Plant response rating, Ragweed [7, 16] | Ragweed plant response rating [7, 13] | further results
1 | Cn1ncc(O)c(-c2ccc(F)c3ccccc23)c1=O [Compound 24] | 0 | 0 | 0 | 0 | 70 | 90 | 80 | 80 | 0 | 0 | 40 | 50 | 30 | 60 | 70 | 90 | 70 | 90 | 30 | 60 | Ragweed plant response rating [7, 14]: 0; Plant response rating, Ragweed [7, 15]: 0; Plant response rating, Wheat [8]: 30; Wheat plant response rating [8]: 70; Plant response rating, Foxtail, Giant [9, 16]: 10; Foxtail, Giant plant response rating [9, 13]: 60; Foxtail, Giant plant response rating [9, 14]: 60; Plant response rating, Foxtail, Giant [9, 15]: 80; Plant response rating, Kochia (kochia (Kochia scoparia); [16]): 70; Kochia plant response rating (kochia (Kochia scoparia); [13]): 80; Kochia plant response rating (kochia (Kochia scoparia); [14]): 30; Plant response rating, Kochia (kochia (Kochia scoparia); [15]): 50; Plant response rating, Blackgrass [10]: 30; Blackgrass plant response rating [10]: 50; Plant response rating, Galium [11]: 80; Galium plant response rating [11]: 100
2 | Cc1ccc2c(c1)c(-c1c(O)c(C)nn(C)c1=O)c(C)n2C [Compound 31] | 0 | 0 | 0 | 0 | 0 | 0 | 0 | 0 | 0 | 0 | 0 | 10 | 0 | 0 | 20 | 40 | 0 | 0 | 0 | 20 | Ragweed plant response rating [7, 14]: 0; Plant response rating, Ragweed [7, 15]: 30; Plant response rating, Wheat [8]: 0; Wheat plant response rating [8]: 0; Plant response rating, Foxtail, Giant [9, 16]: 0; Foxtail, Giant plant response rating [9, 13]: 10; Foxtail, Giant plant response rating [9, 14]: 0; Plant response rating, Foxtail, Giant [9, 15]: 0; Plant response rating, Kochia (kochia (Kochia scoparia); [16]): 0; Kochia plant response rating (kochia (Kochia scoparia); [13]): 0; Kochia plant response rating (kochia (Kochia scoparia); [14]): 0; Plant response rating, Kochia (kochia (Kochia scoparia); [15]): 0; Plant response rating, Blackgrass [10]: 0; Blackgrass plant response rating [10]: 20; Plant response rating, Galium [11]: 20; Galium plant response rating [11]: 70
